Data set [1] has as its system beta-secretase (BACE) versus cathepsin D (catD). The data set can be described thus: CatD/BACE selectivity (ratio of IC50 values). The format is biochemical. The conditions noted are these: each value average of four experimental runs; multiple values = more than one experiment. How it is done: Investigation of potential beta-secretase inhibitors produced compounds with increased selectivity for beta-secretase over other aspartyl proteases such as cathepsin D (catD), cathepsin E (catE), Human Immunodeficiency Viral (HIV) protease, and renin. Selectivity was calculated as a ratio of inhibition (IC50) values in which the inhibition of beta-secretase was compared to the inhibition of other aspartyl proteases.
The compounds of formula (I) can be selective for beta-secretase versus catD.
In the following examples, each value is an average of four experimental runs and multiple values for one compound indicate that more than one experiment was conducted.

A short description of data set [2]: In vitro permeability across MDCK cell monolayer. The format is in vitro ADME, Canine. The conditions noted are these: dog, test compound 5 μM, 2 h at 37° C., apical to basolateral, read-out: Permeability Forward A > B. How it is done: Compounds were evaluated for permeability across a monolayer of Madin-Darby Canine Kidney (MDCK) cells in a transwell device following culturing for 4 days. […] A 0.5 mL of cell suspension (400,000 cells/mL) was placed on membrane and a 1.5 mL media in the bottom wells on day 1. On day 2 and day 3, cells were fed with new media. […] Media was removed from upper chambers and filled with mHBSS with or without CspA, and incubated 30 min at 37° C. with light shaking. Donor chambers were emptied, and filled with test compound at 5 μM in mHBSS. […] Plates were incubated for 2 h at 37° C. with shaking. After 2 h, both the donor and receiver wells were sampled. The bottom chambers were read in a fluorometer to assess LY leakage, and then the media from all wells were assayed by LC/MS/MS to determine compound levels.

Several values for one entry are separate records, joined by “and”; a condition that tells them apart may be missing. Equal entries are not always repeated. Where two headings read alike, the source gives them in different places.

As to `CC(=O)NC(Cc1cc(F)cc(F)c1)C(O)CNC1(c2cccc(C3CC4CCC3C4)c2)CC1` (stereo not drawn) [Example 23.1, N-(4-(1-(3-(bicyclo[2.2.1]heptan-2-yl)phenyl)cyclopropylamino)-1-(3,5-difluorophenyl)-3-hydroxybutan-2-yl)acetamide], the “Selectivity IC50 catD/IC50 BACE” value in data set [1] is given as 3.4. On the same count and under the same terms, the same measure for `CC(=O)NC(Cc1cc(F)cc(F)c1)C(O)CNC1(c2cccc(C3CCCC3)c2)CC1` (stereo not drawn) [Example 23.2, N-(4-(1-(3-cyclopentylphenyl)cyclopropylamino)-1-(3,5-difluorophenyl)-3-hydroxybutan-2-yl)acetamide]: 13.0; for `CC(=O)NC(Cc1cc(F)cc(F)c1)C(O)CNC1(c2cc(O)cc(CC(C)(C)C)c2)CC1` (stereo not drawn) [Example 23.3, N-(1-(3,5-difluorophenyl)-3-hydroxy-4-(1-(3-hydroxy-5-neopentylphenyl)cyclopropylamino)butan-2-yl)acetamide]: 1.5. Consider `CC(=O)NC(Cc1cc(F)cc(F)c1)C(O)CNC1(c2ccn(CC(C)(C)C)n2)CC1` (stereo not drawn) [Example 23.4, N-(1-(3,5-difluorophenyl)-3-hydroxy-4-(1-(1-neopentyl-1H-pyrazol-3-yl)cyclopropylamino)butan-2-yl)acetamide], for which the “Selectivity IC50 catD/IC50 BACE” value in data set [1] stood at 3.5.

On to `CC(=O)NC(Cc1cc(F)cc(F)c1)C(O)CNC1(c2cnn(C(C)(C)C)c2)CC1` (stereo not drawn) [Example 23.5, N-(4-(1-(1-tert-butyl-1H-pyrazol-4-yl)cyclopropylamino)-1-(3,5-difluorophenyl)-3-hydroxybutan-2-yl)acetamide], for which, in data set [1], the “Selectivity IC50 catD/IC50 BACE” value is listed as 6.0.

Take `CC(=O)NC(Cc1cc(F)cc(F)c1)C(O)CNC1(c2csc(C(C)(C)C)c2)CC1` (stereo not drawn) [Example 23.6, N-(4-(1-(5-tert-butylthiophen-3-yl)cyclopropylamino)-1-(3,5-difluorophenyl)-3-hydroxybutan-2-yl)acetamide]: the “Selectivity IC50 catD/IC50 BACE” value in data set [1] was 1.6 and 0.9. On the same count and under the same terms, with `CC(=O)NC(Cc1cc(F)cc(F)c1)C(O)CNC1(c2cccc(C(C)C(F)(F)F)c2)CC1` (stereo not drawn) [Example 23.7, N-(1-(3,5-difluorophenyl)-3-hydroxy-4-(1-(3-(1,1,1-trifluoropropan-2-yl)phenyl)cyclopropylamino)butan-2-yl)acetamide] the figure was 1.7. Same read-out and setting: the same measure for `O=C(Cc1nnn[nH]1)NC(Cc1cc(F)cc(F)c1)C(O)CNC1(c2cccc(-n3cccn3)c2)CC1` (stereo not drawn) [Example 23.8, N-(4-(1-(3-(1H-pyrazol-1-yl)phenyl)cyclopropylamino)-1-(3,5-difluorophenyl)-3-hydroxybutan-2-yl)-2-(1H-tetrazol-5-yl)acetamide]: 3.3; for `O=C(O)CCCC(=O)NC(Cc1cc(F)cc(F)c1)C(O)CNC1(c2cccc(-n3cccn3)c2)CC1` (stereo not drawn) [Example 23.9, 4-(4-(1-(3-(1H-pyrazol-1-yl)phenyl)cyclopropylamino)-1-(3,5-difluorophenyl)-3-hydroxybutan-2-ylcarbamoyl)butanoic acid]: 2.6. For `CC(=O)NC(Cc1cc(F)cc(F)c1)C(O)CNC1(c2cccc(C3CC=CCO3)c2)CC1` (stereo not drawn) [Example 23.31, N-(1-(3,5-difluorophenyl)-4-(1-(3-(3,6-dihydro-2H-pyran-2-yl)phenyl)cyclopropylamino)-3-hydroxybutan-2-yl)acetamide], in data set [2] (MDCK), the Papp A→B at 2 h, 5 μM turned out to be 10.7 ×10⁻⁶ cm/s. Turning to `CC(=O)NC(Cc1cc(F)cc(F)c1)C(O)CNC1(c2cccc(N3CCOCC3)c2)CC1` (stereo not drawn) [Example 23.32, N-(1-(3,5-difluorophenyl)-3-hydroxy-4-(1-(3-morpholinophenyl)cyclopropylamino)butan-2-yl)acetamide], the Papp A→B at 2 h, 5 μM in data set [2] (MDCK) stood at 12.1 ×10⁻⁶ cm/s. For `CC(=O)NC(Cc1cc(F)cc(F)c1)C(O)CNC1(c2cccc(C3CCOCOC3)c2)CC1` (stereo not drawn) [Example 23.34, N-(4-(1-(3-(1,3-dioxepan-5-yl)phenyl)cyclopropylamino)-1-(3,5-difluorophenyl)-3-hydroxybutan-2-yl)acetamide], the Papp A→B at 2 h, 5 μM in data set [2] (MDCK) stood at 12.1 ×10⁻⁶ cm/s. The same measure, in the same setting: the same measure for `CC(=O)NC(Cc1cc(F)cc(F)c1)C(O)CNC1(c2c(F)ccc(-n3cccn3)c2F)CC1` (stereo not drawn) [Example 23.35, N-(4-(1-(2,6-difluoro-3-(1H-pyrazol-1-yl)phenyl)cyclopropylamino)-1-(3,5-difluorophenyl)-3-hydroxybutan-2-yl)acetamide]: 19.4 ×10⁻⁶ cm/s.

As for `CC(=O)NC(Cc1cc(F)cc(F)c1)C(O)CNC1(c2nc(CC(C)(C)C)cs2)CC1` (stereo not drawn) [Example 23.36, N-(1-(3,5-difluorophenyl)-3-hydroxy-4-(1-(4-neopentylthiazol-2-yl)cyclopropylamino)butan-2-yl)acetamide], the Papp A→B at 2 h, 5 μM in data set [2] was 11.3 ×10⁻⁶ cm/s. For the compound `CC(=O)NC(Cc1cc(F)cc(F)c1)C(O)CNC1(c2cnn(C(C)(C)C)c2)CC1` (stereo not drawn) [Example 23.37, N-(4-(1-(1-tert-butyl-1H-pyrazol-4-yl)cyclopropylamino)-1-(3,5-difluorophenyl)-3-hydroxybutan-2-yl)acetamide], the Papp A→B at 2 h, 5 μM in data set [2] (MDCK) was determined as 7.11 ×10⁻⁶ cm/s. Still for that read-out and setting: with `O=C(Cc1ccccc1)NC(Cc1cc(F)cc(F)c1)C(O)CNC1(c2cccc(-n3cccn3)c2)CC1` (stereo not drawn) [Example 23.38, N-(4-(1-(3-(1H-pyrazol-1-yl)phenyl)cyclopropylamino)-1-(3,5-difluorophenyl)-3-hydroxybutan-2-yl)-2-phenylacetamide] the figure was 22.1 ×10⁻⁶ cm/s.

In the case of `COCC(=O)NC(Cc1cc(F)cc(F)c1)C(O)CNC1(c2cccc(-n3cccn3)c2)CC1` (stereo not drawn) [Example 23.40, N-(4-(1-(3-(1H-pyrazol-1-yl)phenyl)cyclopropylamino)-1-(3,5-difluorophenyl)-3-hydroxybutan-2-yl)-2-methoxyacetamide], the Papp A→B at 2 h, 5 μM in data set [2] (MDCK) was found to be 12.9 ×10⁻⁶ cm/s. The same measure, in the same setting: with `CCOCC(=O)NC(Cc1cc(F)cc(F)c1)C(O)CNC1(c2cccc(-n3cccn3)c2)CC1` (stereo not drawn) [Example 23.41, N-(4-(1-(3-(1H-pyrazol-1-yl)phenyl)cyclopropylamino)-1-(3,5-difluorophenyl)-3-hydroxybutan-2-yl)-2-ethoxyacetamide] the figure was 9.86 ×10⁻⁶ cm/s. On the same count and under the same terms, the same measure for `COCCOCC(=O)NC(Cc1cc(F)cc(F)c1)C(O)CNC1(c2cccc(-n3cccn3)c2)CC1` (stereo not drawn) [Example 23.44, N-(4-(1-(3-(1H-pyrazol-1-yl)phenyl)cyclopropylamino)-1-(3,5-difluorophenyl)-3-hydroxybutan-2-yl)-2-(2-methoxyethoxy)acetamide]: 13.3 ×10⁻⁶ cm/s; for `COC(=O)NC(Cc1cc(F)cc(F)c1)C(O)CNC1(c2cccc(-n3cccn3)c2)CC1` (stereo not drawn) [Example 23.45, methyl 4-(1-(3-(1H-pyrazol-1-yl)phenyl)cyclopropylamino)-1-(3,5-difluorophenyl)-3-hydroxybutan-2-ylcarbamate]: 17 ×10⁻⁶ cm/s.

In the case of `CC(=O)NC(Cc1cc(F)cc(F)c1)C(O)CNC1(c2cccc(N3CCSCC3)c2)CC1` (stereo not drawn) [Example 23.48, N-(1-(3,5-difluorophenyl)-3-hydroxy-4-(1-(3-thiomorpholinophenyl)cyclopropylamino)butan-2-yl)acetamide], the Papp A→B at 2 h, 5 μM in data set [2] (MDCK) is 10.9 ×10⁻⁶ cm/s. On the same count and under the same terms, the same measure for `Cc1cc(CC(=O)NC(Cc2cc(F)cc(F)c2)C(O)CNC2(c3cccc(-n4cccn4)c3)CC2)no1` (stereo not drawn) [Example 23.49, N-(4-(1-(3-(1H-pyrazol-1-yl)phenyl)cyclopropylamino)-1-(3,5-difluorophenyl)-3-hydroxybutan-2-yl)-2-(5-methylisoxazol-3-yl)acetamide]: 10.4 ×10⁻⁶ cm/s; for `CC(=O)NC(Cc1cc(F)cc(F)c1)C(O)CNC1(c2cccc(C(C)(C)C(F)F)c2)CC1` (stereo not drawn) [Example 23.50, N-(4-(1-(3-(1,1-difluoro-2-methylpropan-2-yl)phenyl)cyclopropylamino)-1-(3,5-difluorophenyl)-3-hydroxybutan-2-yl)acetamide]: 12.8 ×10⁻⁶ cm/s. Take `CC(=O)NC(Cc1cc(F)cc(F)c1)C(O)CNC1(c2cccc(C(F)C(C)(C)F)c2)CC1` (stereo not drawn) [Example 23.51, N-(4-(1-(3-(1,2-difluoro-2-methylpropyl)phenyl)cyclopropylamino)-1-(3,5-difluorophenyl)-3-hydroxybutan-2-yl)acetamide]: in data set [2] (MDCK), the Papp A→B at 2 h, 5 μM turned out to be 12.7 ×10⁻⁶ cm/s. As to `COCC(C)(C)c1cccc(C2(NCC(O)C(Cc3cc(F)cc(F)c3)NC(C)=O)CC2)c1` (stereo not drawn) [Example 23.52, N-(1-(3,5-difluorophenyl)-3-hydroxy-4-(1-(3-(1-methoxy-2-methylpropan-2-yl)phenyl)cyclopropylamino)butan-2-yl)acetamide], the Papp A→B at 2 h, 5 μM in data set [2] (MDCK) was found to be 14.7 ×10⁻⁶ cm/s. On the same count and under the same terms, with `CC(=O)NC(Cc1cc(F)cc(F)c1)C(O)CNC1(c2cccc(C3COCO3)c2)CC1` (stereo not drawn) [Example 23.53, N-(4-(1-(3-(1,3-dioxolan-4-yl)phenyl)cyclopropylamino)-1-(3,5-difluorophenyl)-3-hydroxybutan-2-yl)acetamide] the figure was 12.7 ×10⁻⁶ cm/s.

`CC(=O)NC(Cc1cc(F)cc(F)c1)C(O)CNC1(c2ncc(C(C)(C)C)o2)CC1` (stereo not drawn) [Example 23.56, N-(4-(1-(5-tert-butyloxazol-2-yl)cyclopropylamino)-1-(3,5-difluorophenyl)-3-hydroxybutan-2-yl)acetamide]: the Papp A→B at 2 h, 5 μM in data set [2] (MDCK) was determined as 20.4 ×10⁻⁶ cm/s.
